Our source for the pKi and Intrinsic activity values is ChEMBL document CHEMBL3879907, “8-azabicyclo[3.2.1]octane compounds as mu opioid receptor antagonists” (2014).

The target in assay [1] is Delta-type opioid receptor (Homo sapiens, UniProt P41143). Put plainly: Displacement of [3H]-diprenorphine from human delta opioid receptor expressed in cell membranes.
For assay [2], the target named is Kappa-type opioid receptor (Cavia porcellus, UniProt P41144). Put plainly: Displacement of [3H]-diprenorphine from guinea pig kappa opioid receptor expressed in CHOK1 cell membranes. The settings on record: cho-k1.
Kappa-type opioid receptor, sequence (P41144 whole entry): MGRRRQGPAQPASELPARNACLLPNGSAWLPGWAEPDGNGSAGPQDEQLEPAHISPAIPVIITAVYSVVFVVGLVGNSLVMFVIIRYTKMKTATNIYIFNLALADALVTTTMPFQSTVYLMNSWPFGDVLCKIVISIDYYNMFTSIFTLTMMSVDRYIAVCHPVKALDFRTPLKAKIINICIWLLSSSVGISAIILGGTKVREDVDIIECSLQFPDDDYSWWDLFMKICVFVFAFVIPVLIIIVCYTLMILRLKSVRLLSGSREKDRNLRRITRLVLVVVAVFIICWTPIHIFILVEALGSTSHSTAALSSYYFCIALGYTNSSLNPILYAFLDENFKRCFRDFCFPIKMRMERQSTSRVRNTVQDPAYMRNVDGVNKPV
For assay [3], the target named is Mu-type opioid receptor (Homo sapiens) (UniProt P35372). Put plainly: Intrinsic activity at human mu opioid receptor expressed in CHOK1 cell membranes at 0.00001 to 20 uM after 30 mins by GTP-Eu nucleotide exchange assay relative to DAMGO. It counts as functional. The settings on record: CHO-K1.
Mu-type opioid receptor (Homo sapiens), sequence (P35372 whole entry): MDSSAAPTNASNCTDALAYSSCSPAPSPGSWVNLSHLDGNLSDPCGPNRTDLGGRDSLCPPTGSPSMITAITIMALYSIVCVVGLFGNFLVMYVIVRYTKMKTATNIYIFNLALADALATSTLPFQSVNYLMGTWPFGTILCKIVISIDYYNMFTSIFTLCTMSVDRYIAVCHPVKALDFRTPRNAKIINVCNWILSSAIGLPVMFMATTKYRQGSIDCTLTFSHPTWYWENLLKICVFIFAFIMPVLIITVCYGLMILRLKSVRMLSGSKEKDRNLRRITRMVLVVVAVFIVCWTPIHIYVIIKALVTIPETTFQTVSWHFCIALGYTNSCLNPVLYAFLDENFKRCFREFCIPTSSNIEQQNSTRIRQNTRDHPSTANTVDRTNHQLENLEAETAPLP

Bounds are passed on as bounds.

Delta-type opioid receptor, sequence (P41143 whole entry): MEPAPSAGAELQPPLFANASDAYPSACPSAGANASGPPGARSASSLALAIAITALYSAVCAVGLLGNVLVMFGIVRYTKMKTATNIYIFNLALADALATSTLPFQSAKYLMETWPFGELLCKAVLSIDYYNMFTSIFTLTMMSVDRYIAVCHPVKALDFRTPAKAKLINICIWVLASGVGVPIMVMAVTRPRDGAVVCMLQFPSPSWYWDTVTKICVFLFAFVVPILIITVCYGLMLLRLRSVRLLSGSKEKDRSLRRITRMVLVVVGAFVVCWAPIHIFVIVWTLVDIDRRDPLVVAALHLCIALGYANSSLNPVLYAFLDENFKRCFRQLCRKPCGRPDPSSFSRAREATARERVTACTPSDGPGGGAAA

As for `NC(=O)c1cccc([C@H]2C[C@H]3CC[C@@H](C2)N3CCN(CCCC2CCCCC2)C(=O)CO)c1`, the pKi in assay [1] and in assay [2] was 7 to 10.5 throughout. In assay [3], this compound returned an Intrinsic activity of less than 40%. In the case of `CS(=O)(=O)CC(=O)N(CCc1ccc(O)cc1)CCN1[C@@H]2CC[C@H]1C[C@@H](c1cccc(C(N)=O)c1)C2.O=C(O)C(F)(F)F`, the pKi in assay [1] and in assay [2] was 7 to 10.5 throughout. In assay [3], this compound came in with an Intrinsic activity of less than 40%. In assay [3], `NC(=O)c1cccc([C@H]2C[C@H]3CC[C@@H](C2)N3CCN(C[C@H]2CC[C@@H](O)CC2)C(=O)[C@@H](O)CO)c1` displayed an Intrinsic activity of less than 40%.

Turning to `CC(C)CC(=O)N(CCN1[C@@H]2CC[C@H]1C[C@@H](c1cccc(O)c1)C2)Cc1c(F)cccc1F`, the pKi in assay [1] and in assay [2] was 7 to 10.5 throughout. Further, the Intrinsic activity in assay [3] is less than 40%. For `NC(=O)c1cccc([C@H]2C[C@H]3CC[C@@H](C2)N3CCN(CC2CCCC2)C(=O)[C@@H](O)CO)c1.O=C(O)C(F)(F)F`, the negative logarithm of the Ki (pKi) in assay [1] and in assay [2] was 7 to 10.5 in each case. The compound also gave an Intrinsic activity in assay [3] of less than 40%.

For the compound `CC(=O)OCC(=O)N(CCN1[C@@H]2CC[C@H]1C[C@@H](c1cccc(O)c1)C2)Cc1ccccc1.O=C(O)C(F)(F)F`, the negative-log Ki (pKi) in assay [1] and in assay [2] was 7 to 10.5 each time. This compound also came in with an Intrinsic activity in assay [3] of less than 40%. As for `O=C(NCc1ccc(F)cc1)N(CCN1[C@@H]2CC[C@H]1C[C@@H](c1cccc(O)c1)C2)CC1CCCCC1`, the pKi in assay [1] and in assay [2] was 7 to 10.5 each time. Moreover, in assay [3], the Intrinsic activity was less than 40%. Consider `NC(=O)c1cccc([C@H]2C[C@H]3CC[C@@H](C2)N3CCN(CC2CCC2)C(=O)[C@H](O)CO)c1.O=C(O)C(F)(F)F`, for which the pKi in assay [1] and in assay [2] was 7 to 10.5 each time. This compound displayed an Intrinsic activity in assay [3] of less than 40%. For `NC(=O)c1cccc([C@H]2C[C@H]3CC[C@@H](C2)N3CCN(CC23CC4CC(CC(O)(C4)C2)C3)C(=O)CO)c1`, the Intrinsic activity in assay [3] was less than 40%. With `O=C(O)CC(=O)N(CCN1[C@@H]2CC[C@H]1C[C@@H](c1cccc(O)c1)C2)Cc1c(F)cccc1F`, the pKi in assay [1] and in assay [2] was 7 to 10.5 throughout. Moreover, in assay [3], the Intrinsic activity is less than 40%.

As to `NC(=O)c1cccc([C@H]2C[C@H]3CC[C@@H](C2)N3CCN(CC2CCCCC2)C(=O)NCc2ccc(F)cc2)c1`, the pKi in assay [1] and in assay [2] was 7 to 10.5 throughout. For the same compound, the Intrinsic activity in assay [3] is less than 40%. In assay [3], `CCC(C)NC(=O)N(CCN1[C@@H]2CC[C@H]1C[C@@H](c1cccc(O)c1)C2)CC1CCCCC1` (some centres undefined) had an Intrinsic activity of less than 40%. For the compound `NC(=O)c1cccc([C@H]2C[C@H]3CC[C@@H](C2)N3CCN(CCc2cccc(F)c2)C(=O)CO)c1.O=C(O)C(F)(F)F`, the pKi in assay [1] and in assay [2] was 7 to 10.5 throughout. The compound also displayed an Intrinsic activity in assay [3] of less than 40%. Regarding `CS(=O)(=O)CC(=O)N(CCN1[C@@H]2CC[C@H]1C[C@@H](c1cccc(C(N)=O)c1)C2)Cc1cccc(F)c1.O=C(O)C(F)(F)F`, the negative-log Ki (pKi) in assay [1] and in assay [2] was 7 to 10.5 each time. Further, in assay [3], the Intrinsic activity was less than 40%. Turning to `NC(=O)c1cccc([C@H]2C[C@H]3CC[C@@H](C2)N3CCN(Cc2ccccc2)C(=O)[C@@H](O)CO)c1.O=C(O)C(F)(F)F`, the pKi in assay [1] and in assay [2] was 7 to 10.5 throughout. In assay [3], this compound came in with an Intrinsic activity of less than 40%.

In the case of `NC(=O)CCC(=O)N(CCN1[C@@H]2CC[C@H]1C[C@@H](c1cccc(O)c1)C2)CC1CCCCC1`, the pKi in assay [1] and in assay [2] was 7 to 10.5 throughout. Further, in assay [3], the Intrinsic activity is less than 40%. As for `CC(C)C[C@H](O)C(=O)N(CCN1[C@@H]2CC[C@H]1C[C@@H](c1cccc(O)c1)C2)CC1CCCCC1`, the pKi in assay [1] and in assay [2] was 7 to 10.5 throughout. In assay [3], this compound gave an Intrinsic activity of less than 40%. For the compound `C[C@H](CN1[C@@H]2CC[C@H]1C[C@@H](c1cccc(O)c1)C2)N(Cc1ccccc1)C(=O)C1CCCCC1`, the negative-log Ki (pKi) in assay [1] and in assay [2] was 7 to 10.5 each time. This compound returned an Intrinsic activity in assay [3] of less than 40%. Regarding `O=C(CO)N(CCN1[C@@H]2CC[C@H]1C[C@@H](c1cccc(O)c1)C2)Cc1ccc(Cl)cc1`, in assay [3], the Intrinsic activity is less than 40%.

The compound `CC(C)(C)NCC[C@H](O)C(=O)N(CCN1[C@@H]2CC[C@H]1C[C@@H](c1cccc(C(N)=O)c1)C2)CC1CCCCC1` had an Intrinsic activity in assay [3] of less than 40%. `O=C(CO)N(CCN1[C@@H]2CC[C@H]1C[C@@H](c1cccc(O)c1)C2)CC1CCCCC1`: the negative logarithm of the Ki (pKi) in assay [1] and in assay [2] was 7 to 10.5 throughout. The compound also returned an Intrinsic activity in assay [3] of less than 40%. Compound `CC(O)C(O)C(=O)N(CCCN1[C@@H]2CC[C@H]1C[C@@H](c1cccc(C(N)=O)c1)C2)Cc1ccccc1` (some centres undefined) had an Intrinsic activity in assay [3] of less than 40%. The same measure, in the same setting: next, `O=C(CO)N(CCN1[C@@H]2CC[C@H]1C[C@@H](c1cccc(O)c1)C2)CC12CC3CC(CC(C3)C1)C2`: less than 40%; `NC(=O)c1cccc([C@H]2C[C@H]3CC[C@@H](C2)N3CCN(CC23CC4CC(CC(O)(C4)C2)C3)C(=O)[C@@H](O)CO)c1`: less than 40%; `NC(=O)c1cccc([C@H]2C[C@H]3CC[C@@H](C2)N3CCN(Cc2ccccc2)C(=O)[C@H](O)CO)c1`: less than 40%.

Take `O=C(N(CCN1[C@@H]2CC[C@H]1C[C@@H](c1cccc(O)c1)C2)CC1CCCCC1)C1(O)CC1`: the Intrinsic activity in assay [3] is less than 40%.

As for `C[C@H](O)C(=O)N(CCCN1[C@@H]2CC[C@H]1C[C@@H](c1cccc(C(N)=O)c1)C2)Cc1ccccc1`, in assay [3], the Intrinsic activity was less than 40%. Regarding `CN(C)CC(O)C(=O)N(CCN1[C@@H]2CC[C@H]1C[C@@H](c1cccc(C(N)=O)c1)C2)CC1CCCCC1` (some centres undefined), in assay [3], the Intrinsic activity was less than 40%. The same measure, in the same setting: the result for `COC(=O)CCC(=O)N(CCN1[C@@H]2CC[C@H]1C[C@@H](c1cccc(O)c1)C2)Cc1ccccc1` reads less than 40%.

Consider `CC(O)C(=O)N(CCN1[C@@H]2CC[C@H]1C[C@@H](c1cccc(C(N)=O)c1)C2)Cc1ccccc1` (some centres undefined), for which the Intrinsic activity in assay [3] was less than 40%. On the same count and under the same terms, the result for `NC(=O)c1cccc([C@H]2C[C@H]3CC[C@@H](C2)N3CCN(C[C@H]2CC[C@H](O)CC2)C(=O)[C@@H](O)CO)c1` reads less than 40%; that for `NC(=O)c1cccc([C@H]2C[C@H]3CC[C@@H](C2)N3CCN(CC23CC4CC(CC(C4)C2)C3)C(=O)CO)c1`, less than 40%; that for `NC(=O)c1cccc([C@H]2C[C@H]3CC[C@@H](C2)N3CCN(CC2CCC(F)(F)CC2)C(=O)[C@@H](O)CO)c1`, less than 40%.

`CS(=O)(=O)CC(=O)N(CCc1ccccc1)CCN1[C@@H]2CC[C@H]1C[C@@H](c1cccc(C(N)=O)c1)C2.O=C(O)C(F)(F)F`: the pKi in assay [1] and in assay [2] was 7 to 10.5 in each case. In the case of `O=C(CCC1CCCC1)N(CCN1[C@@H]2CC[C@H]1C[C@@H](c1cccc(O)c1)C2)CC1CCCCC1`, in assay [3], the Intrinsic activity was less than 40%. On the same count and under the same terms, the result for `CC(C)(C)C(=O)N(CCCN1[C@@H]2CC[C@H]1C[C@@H](c1cccc(C(N)=O)c1)C2)Cc1ccccc1` reads less than 40%; that for `CS(=O)(=O)CC(=O)N(CCN1[C@@H]2CC[C@H]1C[C@@H](c1cccc(C(N)=O)c1)C2)CC1CCC(C(F)(F)F)CC1` (some centres undefined), less than 40%. The same measure, in the same setting: next, `CC(=O)N(CCN1[C@@H]2CC[C@H]1C[C@@H](c1cccc(O)c1)C2)CC12CC3CC(CC(C3)C1)C2`: less than 40%; `O=C(C(O)CCc1ccccc1)N(CCN1[C@@H]2CC[C@H]1C[C@@H](c1cccc(O)c1)C2)CC1CCCCC1` (some centres undefined): less than 40%. As for `NC(=O)c1cccc([C@H]2C[C@H]3CC[C@@H](C2)N3CCN(CC2CCC(F)CC2)C(=O)[C@@H](O)CO)c1` (some centres undefined), the Intrinsic activity in assay [3] is less than 40%. Still for that read-out and setting: the result for `CC1CCC(CN(CCN2[C@@H]3CC[C@H]2C[C@@H](c2cccc(C(N)=O)c2)C3)C(=O)[C@@H](O)CO)CC1` (some centres undefined) reads less than 40%; that for `CC(=O)N(CCN1[C@@H]2CC[C@H]1C[C@@H](c1cccc(C(N)=O)c1)C2)CC12CC3CC(CC(C3)C1)C2`, less than 40%; that for `CC1CCC(CN(CCN2[C@@H]3CC[C@H]2C[C@@H](c2cccc(C(N)=O)c2)C3)C(=O)CS(C)(=O)=O)CC1` (some centres undefined), less than 40%. `O=C(O)c1cccc([C@H]2C[C@H]3CC[C@@H](C2)N3CCN(CC2CCCCC2)C(=O)[C@@H](O)CO)c1` showed an Intrinsic activity in assay [3] of less than 40%. As to `CN(C)S(=O)(=O)N(CCN1[C@@H]2CC[C@H]1C[C@@H](c1cccc(C(N)=O)c1)C2)Cc1ccc(CF)cc1`, the Intrinsic activity in assay [3] was less than 40%.

As to `O=C(O)C1CCCCC1C(=O)N(CCN1[C@@H]2CC[C@H]1C[C@@H](c1cccc(O)c1)C2)CC1CCCCC1` (some centres undefined), in assay [3], the Intrinsic activity is less than 40%. `NC(=O)c1cccc([C@H]2C[C@H]3CC[C@@H](C2)N3CCN(CC2CCC(C(F)(F)F)CC2)C(=O)[C@@H](O)CO)c1` (some centres undefined) had an Intrinsic activity in assay [3] of less than 40%. `C[C@@H](O)[C@H](O)C(=O)N(CCN1[C@@H]2CC[C@H]1C[C@@H](c1cccc(C(N)=O)c1)C2)Cc1ccccc1` returned an Intrinsic activity in assay [3] of less than 40%. For the compound `CCC(C)NC(=O)N(CCN1[C@@H]2CC[C@H]1C[C@@H](c1cccc(C(N)=O)c1)C2)CC1CCCCC1` (some centres undefined), the Intrinsic activity in assay [3] was less than 40%. Still for that read-out and setting: next, `O=C(O)CCC(=O)N(CCN1[C@@H]2CC[C@H]1C[C@@H](c1cccc(O)c1)C2)CC12CC3CC(CC(C3)C1)C2`: less than 40%; `NC(=O)c1cccc([C@H]2C[C@H]3CC[C@@H](C2)N3CCN(CC23CC4CC(CC(C4)C2)C3)C(=O)CCC(=O)O)c1`: less than 40%; `NC(=O)c1cccc([C@H]2C[C@H]3CC[C@@H](C2)N3CCN(CC2CCC(C(F)(F)F)CC2)C(=O)CO)c1` (some centres undefined): less than 40%. As for `O=C(CO)N(CCN1[C@@H]2CC[C@H]1C[C@@H](c1cccc(O)c1)C2)Cc1ccccc1`, the pKi in assay [1] and in assay [2] was 7 to 10.5 throughout.

The compound `NC(=O)c1cccc([C@H]2C[C@H]3CC[C@@H](C2)N3CCN(CC2CCC(F)CC2)C(=O)CO)c1` (some centres undefined) gave an Intrinsic activity in assay [3] of less than 40%. Take `O=C(O)C(O)CC(=O)N(CCN1[C@@H]2CC[C@H]1C[C@@H](c1cccc(O)c1)C2)Cc1cccc(F)c1` (some centres undefined): the Intrinsic activity in assay [3] was less than 40%.
